The source of these data is US8628961B2, “Small molecule antagonists of phosphatidylinositol-3,4,5-triphosphate (PIP3) and uses thereof” (Tufts University, priority 2010, dated 2014).

Series [1] relates to differentiated HL-60 cells. The series is described as follows: fMLP-stimulated cell polarization. The format is cell-based. As to conditions: 100 μM, 2 hr. The method, then: In another set of experiments, the ability of PITs to inhibit fMLP-stimulated HL-60 cell polarization was examined. Differentiated HL-60 cells were treated with PIT-1, PIT-2, PIT-1i-1, or PIT-1i-2, each at 100 μM for 2 hr, followed by stimulation with 100 nM fMLP for 3 min. Actin was stained and analyzed using fluorescent microscopy. The number of the polarized cells was counted in five random fields.

Another series deals with human cancer cells. The series is described as follows: Cancer cell migration, transwell migration and wound closure models. Particulars: for cancer cell migration: model not specified. The format is cell-based. The procedure: Two models of cell migration were used, a transwell migration model and a wound closure model. Migration of cancer and endothelial cells was evaluated using 24-transwell Boyden chamber (Costar, Bedford, Mass.) with a polystyrene membrane (6.5 mm diameter, 10 μm thickness, and 8 μm pore size). Cells were suspended in serum-free media and seeded in the upper compartment of each well (2×10^4 cells/well) in the presence or absence of different compounds at the indicated concentrations. The lower compartment contained 600 μl of serum-free culture media supplemented with growth factors. After an 8-hr incubation at 37° C., cells were fixed and stained with 0.1% crystal violet. Non-migrating cells on the upper surface of the filter were removed, and the stained cells that migrated to the lower side were photographed using a phase-contrast microscope (Nikon, Japan) in five random fields. The cells were lysed with 10% acetic acid, and colorimetric determination was made at 595 nm using Wallac Victor 3 plate reader.
Cancer or endothelial cells were seeded into fibronectin-coated 96-well plates (2×10^4 cells/well). After reaching confluence, cell monolayers were scratched with a pipette tip to obtain a “wound”. The media and dislodged cells were aspirated and replaced by fresh serum-free media in the presence of growth factors, with or without compounds at different concentrations. After an 8-hr incubation at 37° C., cells were photographed using a phase-contrast microscope in five random fields. The width of wounded cell monolayers in images was measured and the inhibition rates of migration were calculated as inhibition rate=[1−(compound-treated group/control group)]×100%, and IC50 value was determined using Origin6 software (MicroCal, LLC, Northampton, Mass.).

A further series relates to SUM159 cells. The series is described as follows: Cell polarization in wounded monolayers after PDGF. Particulars: wound healing model, 100 μM. The series is classed as cell-based, human. The procedure: In order to measure cell polarization, wounds were generated in SUM159 cell monolayers, followed by serum starvation and treatment with 100 μM PIT-1, PIT-2, PIT-1i-1, or PIT-1i-2 for 2 hr. Cells were stimulated for 15 min with 100 ng/ml PDGF, fixed and stained with TRITC-phalloidin for F-actin (red), acetylated tubulin antibody (green) for microtubule organization center (MTOC), and Hoechst for nuclei (blue). Cell polarization was evaluated by analysis of the relative location of the MTOC and nucleus. […] The number of polarized cells was counted in five random fields under fluorescent microscope.

In another series the target is Akt PH domain (Homo sapiens (Human), UniProt P31749). The series is described as follows: Fluorescence polarization (FP) PIP3/Akt PH domain binding assay. As to conditions: for IC50: 15 nM TMR-conjugated PIP3, PITs 6.25-200 μM, 30 min; for activity of PIT-1 analogs in vitro: negative controls. The text has this:
In order to identify compounds that disrupt the interaction between PIP3 and PH domains, a high-throughput fluorescence polarization (FP)-binding assay was developed using recombinant 1-123 amino acid N-terminal fragment of human Akt1 (also referred to herein simply as Akt), encompassing the PH domain (PH123 protein), and fluorescent […] PIP3 molecule. The amino acid sequence of human Akt1 is publicly available as, for example, GenBank Accession No. NP_001014432.1 (SEQ ID NO:1), and the corresponding DNA sequence is publicly available as, for example, GenBank Accession No. NM_001014432. Briefly, 5 μM recombinant GST fusion proteins containing 1-123 a.a. N-terminal fragment of human Akt1 (PH 123) or 100 nM 441-551 a.a. region of human PDK1 were incubated with 15 nM TMR-labeled PIP3, PIP2, or PIP5 in buffer containing 50 mM Tris-HCl (pH 7.5), 150 mM NaCl, and 5 mM b-ME for 15 min at room temperature in the dark. FP values were determined using Wallac Victor 3 plate reader. For the primary screen, 50,000 diverse small molecules from Harvard Institute of Chemistry and Cell Biology were screened (iccb.med.harvard.edu). Incubations were carried out for 1 hr. For secondary assays, PIT compounds were added at various concentrations (6.25, 12.5, 25, 50, 100, 150 and 200 μM), followed by a 30 min incubation. The inhibition rates were calculated as inhibition rate=[1−(compound-treated group/control group)]×100%, and IC50 value was determined using Origin6 software (MicroCal, LLC, Northampton, Mass.).
In general terms: Fluorescence polarisation rises when a labelled molecule tumbles more slowly, as on binding a larger partner.

A short description of series [2]: Solubility (aqueous, cell media). The format is physicochemical. The text has this:
The size of the DM-PIT-1-loaded micelles was about 15 nm with a narrow size distribution.

Series [3] in a line: Cell death under glucose/glutamine deprivation. The format is cell-based.
The target in a further series is WAVE2 (Homo sapiens (Human), UniProt Q9Y6W5). As to the kind of experiment: Plasma membrane translocation assay (GFP fusion). The series is classed as cell-based. The procedure: (§1) To begin characterizing cellular activity of PITs, a PH domain translocation assay was performed, measuring PIP3-induced association of GFP-fused PH domains with the plasma membrane. This method provides useful means for monitoring status of the PH domain/PIP3 binding in the intact cells. Varnai P et al. (1999) J Biol Chem 274:10983-9. Several PH-domain-containing proteins, which are known to bind PIP3 specifically and efficiently, were examined. […] Oikawa T et al. (2004) Nat Cell Biol 6:420-6.
Sequence of WAVE2 (Q9Y6W5 whole entry, species assumed, the tested form may be a part): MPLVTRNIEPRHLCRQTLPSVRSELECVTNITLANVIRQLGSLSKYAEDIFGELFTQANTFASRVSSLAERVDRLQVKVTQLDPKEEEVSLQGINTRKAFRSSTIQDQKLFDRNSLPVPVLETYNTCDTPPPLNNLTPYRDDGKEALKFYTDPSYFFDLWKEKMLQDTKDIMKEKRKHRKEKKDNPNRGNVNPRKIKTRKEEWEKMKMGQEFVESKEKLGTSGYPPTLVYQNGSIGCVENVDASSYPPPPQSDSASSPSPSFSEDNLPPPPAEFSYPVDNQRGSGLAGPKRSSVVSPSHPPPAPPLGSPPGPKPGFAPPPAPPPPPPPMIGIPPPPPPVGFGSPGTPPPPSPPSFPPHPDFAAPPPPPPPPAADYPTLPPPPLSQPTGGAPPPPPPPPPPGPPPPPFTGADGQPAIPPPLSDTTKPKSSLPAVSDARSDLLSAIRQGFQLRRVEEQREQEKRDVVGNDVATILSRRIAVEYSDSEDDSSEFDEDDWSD

The target of another series is VAV2 (Homo sapiens (Human), UniProt P52735). The series is described as follows: Plasma membrane translocation assay (GFP fusion). As to conditions: PDGF stimulation. The series is classed as cell-based. The procedure:
as §1

Series [4] deals with SUM159 cells transfected with VAV2 or WAVE2. As to the kind of experiment: Lamellipodia formation and membrane translocation in VAV/WAVE-transfected cells. The series is classed as cell-based, human. Particulars: 100 μM, 2 hr. The source says:
Of the PIP3-binding actin-regulating factors, VAV and WAVE family proteins have been identified as important PIP3-interacting proteins regulating actin polymerization, lamellipodia formation, and cell motility in response to growth factor stimulation. Hornstein I et al. (2004) Cell Signal 16:1-11; Oikawa T et al. (2004) Nat Cell Biol 6:420-6. Therefore, the effect of PIT-1 on the cellular localization of GFP fusions of VAV and WAVE proteins was investigated. SUM159 cells transfected with VAV2 or WAVE2 GFP vectors were treated with PIT-1, PIT-2, PIT-1i-1, or PIT-1i-2 (100 μM) for 2 hr. Alternatively, cells were serum starved overnight, treated with these same compounds and then stimulated with PDGF 100 ng/ml for 15 min. Subsequently, actin fibers were stained with TRITC-phalloidin and analyzed using fluorescent microscopy. The numbers of cell ruffles/lamellipodia were counted in five random fields.

Sequence of Akt PH domain (P31749 1-123): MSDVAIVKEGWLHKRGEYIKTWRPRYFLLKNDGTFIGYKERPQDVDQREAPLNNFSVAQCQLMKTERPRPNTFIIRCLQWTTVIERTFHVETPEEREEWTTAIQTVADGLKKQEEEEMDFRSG
Sequence of VAV2 (P52735 whole entry, species assumed, the tested form may be a part): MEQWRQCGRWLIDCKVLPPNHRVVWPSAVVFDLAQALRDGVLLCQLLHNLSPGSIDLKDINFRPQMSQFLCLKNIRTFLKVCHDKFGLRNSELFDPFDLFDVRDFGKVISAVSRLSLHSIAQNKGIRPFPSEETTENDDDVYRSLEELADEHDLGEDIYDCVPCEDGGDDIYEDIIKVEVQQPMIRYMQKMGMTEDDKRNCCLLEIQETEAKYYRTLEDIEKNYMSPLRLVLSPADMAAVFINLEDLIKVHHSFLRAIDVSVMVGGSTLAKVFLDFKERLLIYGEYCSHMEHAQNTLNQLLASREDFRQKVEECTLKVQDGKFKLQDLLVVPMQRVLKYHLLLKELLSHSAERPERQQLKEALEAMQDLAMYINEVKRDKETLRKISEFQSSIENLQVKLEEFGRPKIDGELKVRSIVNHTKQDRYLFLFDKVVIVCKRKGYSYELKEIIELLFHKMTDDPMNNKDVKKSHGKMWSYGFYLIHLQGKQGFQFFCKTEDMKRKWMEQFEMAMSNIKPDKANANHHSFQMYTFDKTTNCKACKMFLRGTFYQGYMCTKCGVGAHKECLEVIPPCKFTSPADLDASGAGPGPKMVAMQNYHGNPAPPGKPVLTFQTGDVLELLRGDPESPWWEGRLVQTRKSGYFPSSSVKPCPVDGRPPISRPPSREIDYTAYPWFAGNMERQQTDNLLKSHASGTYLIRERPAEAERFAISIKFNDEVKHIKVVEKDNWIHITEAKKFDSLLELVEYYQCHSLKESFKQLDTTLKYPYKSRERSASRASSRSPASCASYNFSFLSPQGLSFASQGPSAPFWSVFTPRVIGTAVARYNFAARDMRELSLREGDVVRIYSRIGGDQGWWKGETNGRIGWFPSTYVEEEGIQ

For the compound `O=C(NC(=S)Nc1cc([N+](=O)[O-])cc(Cl)c1O)c1ccccc1` [PIT-1], the “fMLP-stimulated polarization of differentiated HL-60 neutrophils” value in series [1] was “efficient inhibition”. Also, the “growth factor-induced transwell migration” value in the series with human cancer cells (dose-dependent) was “substantially inhibited”. Further, the cancer cell migration result with human cancer cells was “much stronger than that of Akt kinase inhibitor VIII”. Moreover, the “cell polarization and lamellipodia formation induced by PDGF” value in the series on SUM159 cells was “effective at preventing cell polarization and lamellipodia formation”. Also, the IC50 at Akt PH domain amounted to 31 ± 2.5 µM. In addition, the aqueous solubility entry in series [2] is recorded as “limited aqueous solubility”. Further, the “cell death in combination with glucose/glutamine deprivation” value in [3] is recorded as “dramatic induction of cell death”. The “plasma membrane translocation of WAVE2” value at WAVE2 is “suppressed the plasma membrane translocation”. Besides, the “plasma membrane translocation of VAV2” value on VAV2 was “significantly inhibited the translocation”.

With `O=C(NC(=O)c1ccccc1)Nc1cc([N+](=O)[O-])cc(Cl)c1O` [PIT-1i-1, reference compound], the cancer cell migration entry in the series with human cancer cells was “neither PIT-1i-1 nor PIT-1i-2 was active”. The “cell polarization and lamellipodia formation induced by PDGF” value in the series on SUM159 cells was “failed to prevent cell polarization”. The “lamellipodia formation and membrane translocation of VAV/WAVE proteins” value in series [4] was “inactive”. In addition, on Akt PH domain, the half-inhibitory concentration (IC50) was > 200 µM and the “activity of PIT-1 analogs in vitro” value was “inactive analogs”.

Turning to `COc1c(Cl)cc([N+](=O)[O-])cc1NC(=S)NC(=O)c1ccccc1` [PIT-1i-2], the cancer cell migration result in the series on human cancer cells is on record as “neither PIT-1i-1 nor PIT-1i-2 was active”. Moreover, the “cell polarization and lamellipodia formation induced by PDGF” value in the series on SUM159 cells is reported as “failed to prevent cell polarization”. In addition, the “lamellipodia formation and membrane translocation of VAV/WAVE proteins” value in series [4] was “inactive”. Also, at Akt PH domain, the IC50 was > 200 µM and the “activity of PIT-1 analogs in vitro” value is “inactive analogs”.

As a reminder, the IC50 is the concentration at which inhibition is half-maximal. Low readings indicate greater potency, high ones weaker potency.
